Measurements published in patent publication US20250059232A1, “PENTAPEPTIDE AND USE THEREOF” (ENSOL BIOSCIENCES INC., priority 2021, published 2025).

What was measured:
[1] = tested on: MDA-MB-231; assay: MDA-MB-231 cell viability (CCK-8) in NK92 co-culture with anti-PD-L1; type: cell-based, human; conditions: 300 uM with 10 ug/ml anti-PD-L1, 24/48/72 hours of co-culturing
Procedure: (§1) The experiment described below was performed to evaluate the tumor cell proliferation inhibitory effect of the combination treatment of the peptide of Example 1 and the anti-PD-L1, which is an immune checkpoint inhibitor. First, 5×10^3 cells of a human prostate cancer cell line PC3, 5×10^3 cells of a human lung cancer cell line A549 (Korean Cell Line Bank), and 1×10^4 cells of a human triple negative breast cancer cell line MDA-MB-231 (ATCC) were seeded in 96 wells and stabilized by culturing overnight. Then, the seeded cells were treated with 10 ug/ml of the anti-PD-L1 and 300 uM of the peptide of Example 1, for each condition while NK92 cells for 5×10^3 cells of each of the PC3 cell line and the MDA-MB-231 cell line and 2.5×10^3 cells of the A549 cell line were additionally seeded. After 24/48/72 hours of co-culturing (for PC3 and MDA-MB-231) and 24/48 hours of co-culturing (for A549), the NK92 cells were removed by washing, and the cancer cell viability was measured by CCK-8 addition. FIG. 15 is a graph illustrating the changes in PC3 cell viability over culturing time for each test group in an anticancer effect evaluation test. In FIG. 15, the x-axis represents culturing time and the y-axis represents cell viability (%). FIG. 16 is a graph illustrating the changes in A549 cell viability over culturing time for each test group in an anticancer effect evaluation test. […]

[2] = tested on: PC3; assay: PC3 cell viability (CCK-8) in NK92 co-culture with anti-PD-1; type: cell-based, human; conditions: 100 or 300 uM with 10 μg/ml anti-PD-1, 48/72 hours, P<0.05
Procedure: The experiment described below was performed to evaluate the tumor cell proliferation inhibitory effect of the combination treatment of the peptide of Example 1 and anti-PD-1, which is another immune checkpoint inhibitor. First, 5×10^3 cells of a human prostate cancer cell line PC3 were seeded in 96 wells and stabilized by culturing overnight. Next, 5×10^3 NK92 cells were additionally seeded, and the test cells were treated with 10 μg/ml of the anti-PD-1 and 100 or 300 uM of the peptide of Example 1 for each condition. After 48/72 hours of co-culturing, the NK92 cells were removed by washing, and the cell viability of the PC3 cells was measured by CCK-8 addition. FIG. 18 is a graph illustrating changes in PC3 cell viability over culturing time for each test group in an anticancer effect evaluation test. In FIG. 18, the x-axis represents culturing time and the y-axis represents cell viability (%).

[3] = tested on: A549; assay: A549 cell viability (CCK-8) in NK92 co-culture with anti-PD-L1; type: cell-based, human; conditions: 300 uM with 10 ug/ml anti-PD-L1, 24/48 hours of co-culturing
Procedure: as §1

[4] = tested on: 4T1 cells; assay: Syngeneic model implanted with paclitaxel-resistant 4T1 cells: tumor volume, Western blot of cleaved PARP and LC3II; type: in vivo, mouse; conditions: for Reduction in tumor volume compared to the group administered with only paclitaxel: Balb/c mice, 3 weeks; for Increase in cleaved PARP expression level in tumor compared to paclitaxel-only group / Reduction in LC3II expression level in tumor compared to paclitaxel-only group: Western blot after 3-week administration
Procedure: Cell death and autophagy marker changes were determined by the Western blot method, using a syngeneic model implanted with 4T1 cells (American Type Culture Collection (ATCC)), which are mouse triple negative breast cancer tumor cells resistant to paclitaxel. The drug administration was started, when the tumor volume was reached to 70 mm^3 after a fat pad of Balb/c mice (6 weeks old, female) was transplanted with 4T1 cells in a concentration of 1×10^6 cells/head. For Week 1, paclitaxel 20 mg/kg was administered on Day 1 and Day 2, and the peptide (10, 100 mg/kg) of Example 1 was co-administered on Day 3, Day 5, and Day 7. In addition, the same process was performed for each of Week 2, and Week 3 (n=3). The tumor volumes were measured daily because the tumors grew very quickly. The changes in cleaved PARP, which is a cell death marker, and the changes in LC3II, which is an autophagy marker, in tumors were analyzed after necropsy on the day after the end of the 3-week administration, by a Western blot test.
FIG. 5 is a graph illustrating the results of tumor volume measurements according to the number of days after treatment in animal experimentation. In FIG. 5, the x-axis represents the number of days elapsed after treatment and the y-axis represents the tumor volume change (mm^3).
In addition, the changes in cleaved PARP, which is a cell death marker, are shown in FIG. 6, and the changes in LC3II, which is an autophagy marker, are shown in FIG. 7. FIG. 6 is a graph showing the changes in expression of cleaved PARP, which is a cell death marker, for each treatment group in animal experimentation, and FIG. 7 is a graph showing the changes in expression of LC3II, which is an autophagy marker, for each treatment group in animal experimentation.

[5] = 10 mg/kg co-administered with paclitaxel
[6] = 100 mg/kg co-administered with paclitaxel, p<0.05

Ac-QLHLD-OH [Example 1, acetyl-QLHLD]
Cancer cell viability compared to the group treated with only anti-PD-L1 [1]: significant decrease in cancer cell viability | Cancer cell viability compared to the checkpoint-inhibitor-only group [2]: significant decrease | Cancer cell viability compared to the group treated with only anti-PD-L1 [3]: significant decrease in cancer cell viability | Reduction in tumor volume compared to the group administered with only paclitaxel ([4]; 10 mg/kg co-administered with paclitaxel 20 mg/kg): 20% | Increase in cleaved PARP expression level in tumor compared to paclitaxel-only group [4, 5]: 2 fold | Reduction in LC3II expression level in tumor compared to paclitaxel-only group [4, 5]: 38% | Reduction in tumor volume compared to the group administered with only paclitaxel ([4]; 100 mg/kg co-administered with paclitaxel 20 mg/kg): 40% | Increase in cleaved PARP expression level in tumor compared to paclitaxel-only group [4, 6]: 3 fold | Reduction in LC3II expression level in tumor compared to paclitaxel-only group [4, 6]: 86%
